The IC50 is the concentration that gives 50% inhibition. High values mean a need for much substance, low ones inhibition by little substance. The inhibition is the relative decrease from the control value, in per cent.

The structures appear in SMILES notation.

This note sets out measurements from ChEMBL document CHEMBL5244257, “The role of imidazole and benzimidazole heterocycles in Chagas disease: A review” (Eur J Med Chem, 2020).

Assay [1] concerns Trypanosoma cruzi. The assay can be described thus: Antitrypanosomal activity against Trypanosoma cruzi epimastigotes. Type of assay: functional, organism-based.
The target of assay [2] is T1, Cruzipain (Trypanosoma cruzi, UniProt P25779). The assay can be described thus: Inhibition of Trypanosoma cruzi Cruzain.
Assay [3] deals with Trypanosoma cruzi. The assay can be described thus: Inhibition of Trypanosoma cruzi assessed as inhibition of parasite growth at 100 uM relative to control. The format is functional.
Assay [4] deals with Trypanosoma cruzi. Briefly: Antitrypanosomal activity against Trypanosoma cruzi Tulahuen 2 epimastigotes measured after 5 days. Type of assay: functional, organism-based. The following applies: Tulahuen 2, 120 h.
In assay [5] the target is T1, Cruzipain. Briefly: Inhibition of Trypanosoma cruzi Tulahuen 2 Cruzain using Z-Phe-Arg-AMC as flurogenic substrate at 100 uM by spectrophotometry based analysis relative to control.
Assay [6] deals with Trypanosoma cruzi. Briefly: Trypanocidal activity against Trypanosoma cruzi trypomastigotes. The format is functional, organism-based.
In assay [7] the target is T1, Cruzipain. Briefly: Inhibition of Trypanosoma cruzi Cruzain using Z-Phe-Arg-AMC as flurogenic substrate.
Assay [8] deals with Trypanosoma cruzi. The assay can be described thus: Antitrypanosomal activity against Trypanosoma cruzi Tulahuen LacZ amastigotes infected in human HFF-1 cells incubated for 120 hrs. The format is functional, organism-based. The settings on record: HFF-1, 120 h.
Assay [9] deals with Trypanosoma cruzi. Briefly: Inhibition of Trypanosoma cruzi TIM at 100 uM relative to control.
The test system of assay [10] is Trypanosoma cruzi. Briefly: Antitrypanosomal activity against Trypanosoma cruzi Tulahuen strain trypomastigotes infected in human MRC5 cells measured after 7 days. Type of assay: functional, organism-based. The settings on record: MRC5, 168 h.
The test system of assay [11] is Trypanosoma cruzi. Briefly: Antitrypanosomal activity against of Trypanosoma cruzi amastigotes. The format is functional, organism-based.
Assay [12] deals with Trypanosoma cruzi. Briefly: Antitrypanosomal activity against Trypanosoma cruzi Y strain trypomastigotes infected in Swiss albino mouse incubated for 24 hrs. Type of assay: functional, organism-based.
Assay [13] concerns Trypanosoma cruzi. The assay can be described thus: Antitrypanosomal activity against Trypanosoma cruzi trypomastigotes. Type of assay: functional, organism-based.
The subject of assay [14] is Trypanosoma cruzi. Briefly: Antiparasitic activity against Trypanosoma cruzi Tulahuen strain amastigotes. Type of assay: functional, organism-based.
In assay [15] the test system is Trypanosoma cruzi. Briefly: Antitrypanosomal activity against bloodstream form of Trypanosoma cruzi Y […] measured after 24 hrs by giemsa staining based microscopic analysis. Type of assay: functional, organism-based.
Assay [16] has as its system Trypanosoma cruzi. The assay can be described thus: Antitrypanosomal activity against of Trypanosoma cruzi Y trypomastigotes measured after 48 hrs by giemsa staining based microscopic analysis. The format is functional, organism-based.
Assay [17] deals with Trypanosoma cruzi. Briefly: Antitrypanosomal activity against Trypanosoma cruzi Y strain amastigotes incubated for 24 hrs by microscopy analysis. Type of assay: functional, organism-based.
Assay [18] can be described thus: Inhibition of Trypanosoma cruzi TIM.
Assay [19] deals with Trypanosoma cruzi. The assay can be described thus: Antitrypanosomal activity against of Trypanosoma cruzi Tulahuen strain amastigotes infected in mouse 3T3 cells by alamar blue staining based analysis. Type of assay: functional, organism-based. The settings on record: NIH3T3.
Assay [20] is described as follows: Inhibition of Trypanosoma cruzi epimastigotes Fe-SOD by Bradford method.
The test system of assay [21] is Trypanosoma cruzi. Briefly: Antitrypanosomal activity against Trypanosoma cruzi IRHOD/CO/2008/SN3 epimastigotes. The format is functional, organism-based.

T1 sequence (P25779 whole entry): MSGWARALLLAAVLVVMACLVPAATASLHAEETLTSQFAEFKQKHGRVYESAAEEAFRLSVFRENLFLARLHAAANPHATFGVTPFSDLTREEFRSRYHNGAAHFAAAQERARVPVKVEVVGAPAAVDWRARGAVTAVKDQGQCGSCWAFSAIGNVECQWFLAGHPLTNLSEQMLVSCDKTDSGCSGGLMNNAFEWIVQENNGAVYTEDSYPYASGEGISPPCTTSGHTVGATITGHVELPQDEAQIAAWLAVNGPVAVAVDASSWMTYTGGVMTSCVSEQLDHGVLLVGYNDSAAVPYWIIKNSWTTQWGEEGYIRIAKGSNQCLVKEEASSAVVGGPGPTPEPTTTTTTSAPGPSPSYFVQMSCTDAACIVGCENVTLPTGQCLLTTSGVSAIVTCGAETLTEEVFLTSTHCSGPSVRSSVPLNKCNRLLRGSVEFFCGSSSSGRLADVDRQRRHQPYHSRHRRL

Regarding `Cc1ccc(OCCn2c(CCNC(=O)C3CCCCC3)nc3ccccc32)cc1`, the values for the half-maximal inhibitory concentration (IC50) in the assay with Trypanosoma cruzi [1] and against Cruzipain [2] were 64 µM and 2 µM, respectively. With `CCOC(=O)c1nc2ccc([N+](=O)[O-])cc2n1OC(=O)OC(C)(C)C`, the inhibition at 100 µM with Trypanosoma cruzi [3] was found to be 61%. As to `CCCCn1c(-c2ccc(Br)cc2)nc2ccccc21`, the IC50 worked out at 13.3 µM in the assay with Trypanosoma cruzi [4] and 55 µM on Cruzipain [5]. `CCOC(=O)Cc1[nH]c(-c2ccccc2)nc1-c1ccc(C)cc1` came in with a half-inhibitory concentration (IC50) with Trypanosoma cruzi [6] of 51.1 µM. Consider `Cc1cccc(OCCNC(=O)n2ccnc2)c1`, for which the IC50 at Cruzipain [7] is 1 µM; with Trypanosoma cruzi [8] it was 1.1 µM. For the compound `Cn1c(OC(N)=O)nc2cc(Oc3cccc4ccccc34)c(Cl)cc21`, in the assay on Trypanosoma cruzi [9], the inhibition worked out at 60%. For the compound `Cn1c([N+](=O)[O-])cnc1C1=NOC2CCCCC12` (stereo unspecified), 33 µM corresponded to half-maximal inhibition in the assay on Trypanosoma cruzi [1] (IC50). The compound `Cc1ccc(-c2c[nH]c(NC(=O)N3CCN(c4ccc(C(F)(F)F)cc4[N+](=O)[O-])CC3)n2)cc1` showed a half-maximal inhibitory concentration (IC50) with Trypanosoma cruzi [10] of 2.2 µM.

In the assay on Trypanosoma cruzi [11], `CN(C)c1ccc(-c2nc(-c3ccccc3)c(-c3ccccc3)[nH]2)cc1` registered an IC50 of 0.96 µM. In other words, the sub-micromolar range. As for `Cn1cnc([N+](=O)[O-])c1-n1cc(C2CC2)nn1`, in the assay on Trypanosoma cruzi [12], the 50% inhibitory concentration (IC50) came out at 5.4 µM. As for `Cc1ccc2[nH]c(CCNC(=O)COc3ccc4ccccc4c3Br)nc2c1`, at Cruzipain [2], the IC50 turned out to be 0.61 µM.

The compound `Cn1c([N+](=O)[O-])cnc1-c1c(-c2ccccc2)nc(-c2ccc(Br)cc2)n1O` yielded a concentration for half-maximal inhibition (IC50) in the assay on Trypanosoma cruzi [13] of 23.9 µM. In the case of `COc1ccc(-n2c[n+](-c3ccc(OC)cc3)c(Cc3ccccc3)c2-c2ccc(C)cc2)cc1`, in the assay with Trypanosoma cruzi [1], half-maximal inhibition (IC50) was put at 0.44 µM. That is a sub-micromolar value. In the assay with Trypanosoma cruzi [14], `O=C(N[C@@H](Cn1ccnc1)c1ccc(-c2ccc(F)cc2)cc1F)c1ccc(-c2nnc(-c3ccccc3)o2)cc1` returned a concentration for half-maximal inhibition (IC50) of 0.0008 µM. Consider `C=C(c1ccccc1OCc1cccc(Cl)c1)n1ccnc1` [CROCONAZOLE], for which the half-maximal inhibitory concentration (IC50) with Trypanosoma cruzi [15] stood at 24 µM; with Trypanosoma cruzi [16], 16 µM. For `Cc1cc(C)c(-n2cc[n+](-c3c(C)cc(C)cc3C)c2)c(C)c1`, half-maximal inhibition in the assay on Trypanosoma cruzi [1] (IC50) was put at 2 µM.

In the case of `O=C(N[C@@H](Cn1ccnc1)c1ccc(Cl)cc1Cl)c1ccc(-c2nnc(-c3ccccc3)o2)cc1`, the IC50 in the assay with Trypanosoma cruzi [13] amounted to 11 µM; in the assay with Trypanosoma cruzi [17], 0.9 µM. In the assay on Trypanosoma cruzi [1], `c1ccc2c(c1)ccn1c[n+](C3CCCCC3)c(NC3CCCCC3)c21` returned an IC50 of 1.02 µM.

Regarding `Brc1ccc(-c2c[nH]c(-c3ccccn3)n2)cc1`, the IC50 in the assay with Trypanosoma cruzi [10] amounted to 1.2 µM.

In turn, `Sc1nc2cc(Cl)ccc2[nH]1` yielded an IC50 in the assay with Trypanosoma cruzi [6] of 320 µM.

Turning to `c1ccc2c(c1)cnn1c[n+](C3CCCCC3)c(NC3CCCCC3)c21`, half-maximal inhibition in the assay on Trypanosoma cruzi [1] (IC50) was put at 1.14 µM. On the same count and under the same terms, the result for `COc1ccc(O)c(-c2nc(C)c(C)[nH]2)c1` reads 10.7 µM. Compound `CSc1nc2cc(C(=O)Nc3ncc([N+](=O)[O-])s3)c(Cl)cc2n1C` yielded an IC50 in assay [18] of 100 µM. At Cruzipain [2], `Cc1ccccc1OCC(=O)NCCc1nc2ccccc2[nH]1` gave an IC50 of 1.6 µM. Consider `O=C(COc1ccc2ccccc2c1Br)NCCc1nc2cc(Cl)ccc2[nH]1`, for which, at Cruzipain [2], inhibition was half-maximal at 0.59 µM (IC50). `c1ccc(-c2nc(-c3cccc4ccccc34)c[nH]2)cc1` registered a half-maximal inhibitory concentration (IC50) in the assay with Trypanosoma cruzi [6] of 35.5 µM. `c1ccc(-c2ccc(Cn3cncc3CNc3ccc(-c4nc5ccccc5s4)c(-c4ccccc4)c3)cc2)cc1` showed an IC50 with Trypanosoma cruzi [19] of 0.02 µM.

In the assay with Trypanosoma cruzi [1], `Oc1ccc(-n2c[n+](-c3ccc4ccccc4c3)c(Cc3ccccc3)c2-c2ccc(Cl)cc2)cc1` came in with an IC50 of 0.54 µM.

Compound `CC(C)c1cccc(C(C)C)c1-n1cc[n+](-c2c(C(C)C)cccc2C(C)C)c1` showed a half-maximal inhibitory concentration (IC50) with Trypanosoma cruzi [1] of 1.1 µM. For `Oc1cccc2c(NCCc3c[nH]cn3)nnc(Cl)c12`, the IC50 in assay [20] was 27 µM; in the assay with Trypanosoma cruzi [21] it was 8.5 µM.
